Eleven molecules from patent US20240247080A1, “GLP1/GIP/NPY2 RECEPTOR TRIPLE AGONISTS” (Boehringer Ingelheim International GmbH, priority 2022, published 2024) can be followed below.

Format in all cases: cell-based
Settings in all cases: CreLuc reporter gene assay
On the technique in general: Reporter assays use an easily measured gene product as a stand-in for the process of interest.

One test has as its target T1, hGLP1R (Homo sapiens, UniProt P43220).
T1 construct: expressed in transfected cells; host or cells: HEK-293 cells carrying a CRE-luciferase reporter gene
Nature of the test: hGLP1R CreLuc reporter gene assay in 0.5% and 100% plasma. In short, it runs like this:
(§1)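 Agonist EC50s came from 8-concentration curves over four decades, fitted by non-linear variable-slope regression of CRE-driven luciferase luminescence. Cells were exposed 4 h at 37 °C, in buffer with 0.5% human plasma or in 100% plasma; GIPR was expressed in CHO cells, GLP-1R and NPY2R in HEK cells.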

In another test the target is T2, hNPY2R (Homo sapiens, UniProt P49146).
T2 construct: expressed in transfected cells; host or cells: HEK-293 cells carrying a CRE-luciferase reporter gene
T2 sequence (P49146 1-381): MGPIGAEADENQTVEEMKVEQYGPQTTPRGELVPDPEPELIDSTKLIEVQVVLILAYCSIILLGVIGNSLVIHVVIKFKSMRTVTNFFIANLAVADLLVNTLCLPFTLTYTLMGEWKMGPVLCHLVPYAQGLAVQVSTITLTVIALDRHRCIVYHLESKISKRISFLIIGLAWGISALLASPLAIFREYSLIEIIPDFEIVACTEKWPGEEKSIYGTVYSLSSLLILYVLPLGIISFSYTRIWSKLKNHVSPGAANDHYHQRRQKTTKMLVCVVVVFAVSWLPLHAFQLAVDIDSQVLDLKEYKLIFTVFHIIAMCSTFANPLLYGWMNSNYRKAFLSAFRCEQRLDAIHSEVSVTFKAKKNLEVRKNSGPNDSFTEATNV
Description: hNPY2R CreLuc reporter gene assay in 0.5% and 100% plasma. The method, boiled down: as §1

A further test has as its target T3, hGIPR (Homo sapiens, UniProt P48546).
T3 construct: expressed in transfected cells; host or cells: CHO cells carrying a CRE-luciferase reporter gene
T3 sequence (P48546 22-466): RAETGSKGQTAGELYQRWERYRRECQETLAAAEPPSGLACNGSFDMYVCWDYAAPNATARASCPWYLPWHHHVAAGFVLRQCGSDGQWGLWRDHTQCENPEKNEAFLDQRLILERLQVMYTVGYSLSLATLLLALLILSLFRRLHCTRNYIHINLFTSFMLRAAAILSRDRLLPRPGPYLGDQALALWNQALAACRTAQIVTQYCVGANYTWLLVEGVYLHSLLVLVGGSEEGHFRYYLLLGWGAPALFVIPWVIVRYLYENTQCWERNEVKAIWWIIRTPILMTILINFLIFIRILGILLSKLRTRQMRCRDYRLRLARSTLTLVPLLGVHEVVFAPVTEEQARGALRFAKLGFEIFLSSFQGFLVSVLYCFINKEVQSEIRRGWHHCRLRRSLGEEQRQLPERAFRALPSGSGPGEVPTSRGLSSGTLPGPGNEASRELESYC
Description: hGIPR CreLuc reporter gene assay in 0.5% and 100% plasma. The method, boiled down: as §1

Where [1] appears, read: 0.5% human plasma, read-out: hGLP1R 0.5% hP.
Where [2] appears, read: 0.5% human plasma, read-out: hNPY2R 0.5% hP.
Where [3] appears, read: 100% human plasma, read-out: hNPY2R 100% hP.
Where [4] appears, read: 0.5% human plasma, read-out: hGIPR 0.5% hP.
Setting [5] is: 100% human plasma, read-out: hGIPR 100% hP.
Setting [6] is: 100% human plasma, read-out: hGLP1R 100% hP.

Where two headings read alike, the source gives them in different places. Starred links: 1 amine or outer side, 2 acyl side, 3 side chain; linkers in the order of their positions; H or OH if unused. Positions of bridges follow the written chain, without caps; N, C: chain ends. Non-standard residues stand in square brackets, D forms with d. Groups on a side chain read outwards from the residue. Chains are numbered I, II in the order given. *: point of attachment. C20 diacid = O=C(O)CCCCCCCCCCCCCCCCCCC(=O)*; C18 diacid = O=C(O)CCCCCCCCCCCCCCCCC(=O)*; γGlu = O=C(O)[C@H](CCC(=O)[*:2])N[*:1]; εLys = N[C@@H](CCCCN[*:1])C(=O)[*:2]; AEEA = NCCOCCOCC(=O)O; Aib = CC(C)(N)C(=O)O

T1 sequence (P43220 24-463): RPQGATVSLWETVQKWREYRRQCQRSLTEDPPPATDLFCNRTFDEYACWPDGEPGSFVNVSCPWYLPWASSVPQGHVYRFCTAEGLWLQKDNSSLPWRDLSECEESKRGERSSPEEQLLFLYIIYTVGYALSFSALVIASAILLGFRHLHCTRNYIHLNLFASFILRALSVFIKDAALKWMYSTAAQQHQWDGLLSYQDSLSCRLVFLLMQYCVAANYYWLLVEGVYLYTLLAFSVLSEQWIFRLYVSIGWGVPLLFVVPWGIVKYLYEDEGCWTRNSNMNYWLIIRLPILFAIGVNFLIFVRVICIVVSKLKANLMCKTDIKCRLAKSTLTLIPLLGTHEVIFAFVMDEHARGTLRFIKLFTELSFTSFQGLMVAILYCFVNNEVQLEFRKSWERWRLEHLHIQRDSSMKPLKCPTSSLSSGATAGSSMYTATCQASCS

On to “H-Y[Aib]EGTFTSDYSI[Aib]LEKQAQ[Aib]AFVEWLIK([εLys-γGlu-γGlu-γGlu-γGlu-γGlu-γGlu-C20 diacid])GGPSSPQSLRHYYNWLTRQRY-NH2 [Compound 41, Y-Aib-E-G-T-F-T-S-D-Y-S-I-Aib-L-E-K-Q-A-Q-Aib-A-F-V-E-W-L-I-K(1,3)-GGPSSPQSLRHYYNWLTRQRY-NH2.C20DA-gGlu-gGlu-gGlu-gGlu-gGlu-gGlu-eLys(1,2)]”, for which the EC50 on hGLP1R (setting [1]) is 0.06 nM; on hNPY2R (setting [2]) it was 10.2 nM; at hNPY2R (setting [3]) it was 34.6 nM; on hGIPR (setting [4]), 0.07 nM; at hGIPR (setting [5]), 0.62 nM.
In the same order, the values of `CC[C@H](C)[C@H](NC(=O)[C@H](CC(C)C)NC(=O)[C@H](Cc1c[nH]c2ccccc12)NC(=O)[C@H](CCC(N)=O)NC(=O)[C@@H](NC(=O)[C@H](Cc1ccccc1)NC(=O)[C@H](C)NC(=O)C(C)(C)NC(=O)[C@H](CCC(N)=O)NC(=O)[C@H](C)NC(=O)[C@H](CCC(N)=O)NC(=O)[C@H](CCC(=O)O)NC(=O)[C@H](CCC(=O)O)NC(=O)[C@H](CC(C)C)NC(=O)C(C)(C)NC(=O)[C@@H](NC(=O)[C@H](CO)NC(=O)[C@H](Cc1ccc(O)cc1)NC(=O)[C@H](CC(=O)O)NC(=O)[C@H](CO)NC(=O)[C@@H](NC(=O)[C@H](Cc1ccccc1)NC(=O)[C@@H](NC(=O)CNC(=O)[C@H](CCC(=O)O)NC(=O)C(C)(C)NC(=O)[C@@H](N)Cc1ccc(O)cc1)[C@@H](C)O)[C@@H](C)O)[C@@H](C)CC)C(C)C)C(=O)N[C@@H](CCCCNC(=O)[C@@H](N)CCCCNC(=O)CC[C@H](NC(=O)CC[C@H](NC(=O)CC[C@H](NC(=O)[C@H](CCC(=O)O)NC(=O)CC[C@H](NC(=O)CC[C@H](NC(=O)CCCCCCCCCCCCCCCCCCC(=O)O)C(=O)O)C(=O)O)C(=O)O)C(=O)O)C(=O)O)C(=O)NCC(=O)NCC(=O)N1CCC[C@H]1C(=O)N[C@@H](CO)C(=O)N[C@@H](CO)C(=O)NCC(=O)N[C@@H](C)C(=O)N[C@@H](CO)C(=O)N[C@@H](CC(C)C)C(=O)N[C@@H](CCCNC(=N)N)C(=O)N[C@@H](Cc1c[nH]cn1)C(=O)N[C@@H](Cc1ccc(O)cc1)C(=O)N[C@@H](Cc1ccc(O)cc1)C(=O)N[C@@H](CC(N)=O)C(=O)N[C@@H](Cc1c[nH]c2ccccc12)C(=O)N[C@@H](CC(C)C)C(=O)N[C@H](C(=O)N[C@@H](CCCNC(=N)N)C(=O)N[C@@H](CCC(N)=O)C(=O)N[C@@H](CCCNC(=N)N)C(=O)N[C@@H](Cc1ccc(O)cc1)C(N)=O)[C@@H](C)O` [Compound 30, Y-Aib-E-G-T-F-T-S-D-Y-S-I-Aib-L-E-E-Q-A-Q-Aib-A-F-V-Q-W-L-I-K(1,3)-GGPSSGASLRHYYNWLTRQRY-NH2.C20DA-gGlu-gGlu-Glu-gGlu-gGlu-gGlu-eLys(1,2)] are 0.08 nM, 13.3 nM, 56.3 nM, 0.13 nM and 1.06 nM.
For the molecule “H-Y[Aib]EGTFTSDYSI[Aib]LEKQAQ[Aib]AFVQWLIK([εLys-γGlu-γGlu-γGlu-γGlu-γGlu-γGlu-C20 diacid])GGPEEGASLRHYYNWLTRQRY-NH2 [Compound 89, Y-Aib-E-G-T-F-T-S-D-Y-S-I-Aib-L-E-K-Q-A-Q-Aib-A-F-V-Q-W-L-I-K(1,3)-GGPEEGASLRHYYNWLTRQRY-NH2.C20DA-gGlu-gGlu-gGlu-gGlu-gGlu-gGlu-eLys(1,2)]”, the EC50 on hGLP1R (setting [1]) is 0.25 nM; at hNPY2R (setting [2]) it was 14.8 nM; on hGIPR (setting [4]), 1.01 nM.
On to “H-Y[Aib]EGTFTSDYSI[Aib]LEKQAQ[Aib]AFVEWLIK([εLys-γGlu-γGlu-γGlu-γGlu-γGlu-γGlu-C20 diacid])GGPSSGALLRHYYNWLTRQRY-NH2 [Compound 197, Y-Aib-E-G-T-F-T-S-D-Y-S-I-Aib-L-E-K-Q-A-Q-Aib-A-F-V-E-W-L-I-K(1,3)-GGPSSGALLRHYYNWLTRQRY-NH2.C20DA-gGlu-gGlu-gGlu-gGlu-gGlu-gGlu-eLys(1,2)]”, for which the EC50 on hGLP1R (setting [1]) amounted to 0.31 nM; on hNPY2R (setting [2]) it was 42.6 nM; at hNPY2R (setting [3]) it was 157 nM; at hGIPR (setting [4]), 0.43 nM.
Take “I: H-Y[Aib]EGTFTSDYSI[Aib]LEKQAQ[Aib]AFVQWLIKGGPEEGASLRHYYNWLTRQRY-NH2 / II: {C18 diacid}-EEEEE[εLys] (amide I:28-II:C) [Compound 155, Y-Aib-E-G-T-F-T-S-D-Y-S-I-Aib-L-E-K-Q-A-Q-Aib-A-F-V-Q-W-L-I-K(1,3)-GGPEEGASLRHYYNWLTRQRY-NH2.C18DA-E-E-E-E-E-eLys(1,2)]”: the EC50 on hGLP1R (setting [1]) stood at 0.15 nM; on hGLP1R (setting [6]) it was 7.18 nM; on hNPY2R (setting [2]), 17 nM; on hGIPR (setting [4]), 0.14 nM; on hGIPR (setting [5]), 1.43 nM.
For “H-Y[Aib]EGTFTSDYSI[Aib]LEKQAQ[Aib]AFVEWLIK([εLys-γGlu-γGlu-γGlu-γGlu-γGlu-γGlu-C20 diacid])GGPSTGASLRHYYNWLTRQRY-NH2 [Compound 244, Y-Aib-E-G-T-F-T-S-D-Y-S-I-Aib-L-E-K-Q-A-Q-Aib-A-F-V-E-W-L-I-K(1,3)-GGPSTGASLRHYYNWLTRQRY-NH2.C20DA-gGlu-gGlu-gGlu-gGlu-gGlu-gGlu-eLys(1,2)]”, the EC50 at hGLP1R (setting [1]) turned out to be 0.19 nM; at hNPY2R (setting [2]), 13.5 nM; on hGIPR (setting [4]), 0.32 nM.
As for “H-Y[Aib]EGTFTSDYSI[Aib]LEKQAQ[Aib]AFVQWLIK([εLys-γGlu-γGlu-γGlu-γGlu-γGlu-C20 diacid])GGPSEYASLRHYYNWLTRQRY-NH2 [Compound 189, Y-Aib-E-G-T-F-T-S-D-Y-S-I-Aib-L-E-K-Q-A-Q-Aib-A-F-V-Q-W-L-I-K(1,3)-GGPSEYASLRHYYNWLTRQRY-NH2.C20DA-gGlu-gGlu-gGlu-gGlu-gGlu-eLys(1,2)]”, the EC50 on hGLP1R (setting [1]) was determined as 0.21 nM; on hGLP1R (setting [6]), 10.2 nM; on hNPY2R (setting [2]), 8.03 nM; on hNPY2R (setting [3]) it was 45.8 nM; on hGIPR (setting [4]), 0.31 nM.
With “H-Y[Aib]EGTFTSDYSI[Aib]LEKQAQ[Aib]AFVEWLIK([εLys-γGlu-γGlu-γGlu-γGlu-γGlu-γGlu-C20 diacid])GGPSEPQSIRHYYNWLTRQRY-NH2 [Compound 48, Y-Aib-E-G-T-F-T-S-D-Y-S-I-Aib-L-E-K-Q-A-Q-Aib-A-F-V-E-W-L-I-K(1,3)-GGPSEPQSIRHYYNWLTRQRY-NH2.C20DA-gGlu-gGlu-gGlu-gGlu-gGlu-gGlu-eLys(1,2)]”, the EC50 at hGLP1R (setting [1]) is 0.07 nM; on hNPY2R (setting [3]), 35.2 nM; at hGIPR (setting [4]) it was 0.07 nM; at hGIPR (setting [5]), 0.68 nM.
As for “H-Y[Aib]EGTFTSDYSI[Aib]LEKQAQ[Aib]AFVEWLIK([εLys-γGlu-γGlu-γGlu-γGlu-γGlu-γGlu-C20 diacid])GGPSSGQS[Aib]RHYYNWLTRQRY-NH2 [Compound 44, Y-Aib-E-G-T-F-T-S-D-Y-S-I-Aib-L-E-K-Q-A-Q-Aib-A-F-V-E-W-L-I-K(1,3)-G-G-P-S-S-G-Q-S-Aib-R-H-Y-Y-N-W-L-T-R-Q-R-Y-NH2.C20DA-gGlu-gGlu-gGlu-gGlu-gGlu-gGlu-eLys(1,2)]”, the EC50 at hGLP1R (setting [1]) was 0.07 nM; at hGLP1R (setting [6]) it was 2.12 nM; at hNPY2R (setting [3]), 24.5 nM; at hGIPR (setting [4]) it was 0.05 nM; on hGIPR (setting [5]) it was 1.14 nM.
As to “H-Y[Aib]EGTFTSDYSI[Aib]LEKQAQ[Aib]AFIEWLIK([γGlu-γGlu-γGlu-γGlu-C18 diacid])GGPSEGASLRHYYNWLTRQRY-NH2 [Compound 247, Y-Aib-E-G-T-F-T-S-D-Y-S-I-Aib-L-E-K-Q-A-Q-Aib-A-F-I-E-W-L-I-K(1,3)-GGPSEGASLRHYYNWLTRQRY-NH2.C18DA-gGlu-gGlu-gGlu-gGlu(1,2)]”, the EC50 at hGLP1R (setting [1]) stood at 0.11 nM; on hNPY2R (setting [2]), 11.9 nM; at hNPY2R (setting [3]), 64.7 nM; at hGIPR (setting [4]) it was 0.26 nM; at hGIPR (setting [5]), 1.57 nM.
“H-Y[Aib]EGTFTSDYSI[Aib]LEKQAQ[Aib]AFVQWLIK([AEEA-AEEA-Glu-Glu-Glu-C18 diacid])GGPEEGASLRHYYNWLTRQRY-NH2 [Compound 188, Y-Aib-E-G-T-F-T-S-D-Y-S-I-Aib-L-E-K-Q-A-Q-Aib-A-F-V-Q-W-L-I-K(1,3)-GGPEEGASLRHYYNWLTRQRY-NH2.C18DA-E-E-E-OEG-OEG(1,2)]”: the EC50 at hGLP1R (setting [1]) came to 0.15 nM; at hNPY2R (setting [2]) it was 16.9 nM; at hGIPR (setting [4]), 0.12 nM.
